≈ marks a conversion by molar mass, not a printed value. Read-outs that look alike come from different tables or passages of the source.
Columns and labels:
[1] = in vitro; type: in vitro ADME; conditions: pig, PAMPA, pH 7.4
Method: Physicochemical characterization of dracocephins A and B was also carried out. […] Similarly to this lipophilicity trend, the TPSA value of (±)-naringenin is lower than dracocephins A and B, however, there is no difference between the calculated TPSA values of 2a–d and 3a–d. […] Among these proton-dissociation constants, the lowest acidic pKa values are predominant in physiological environment, which is also indicated by the difference of log D values between pH 7.4 and pH 6.5. The blood–brain barrier (BBB) specific penetration of dracocephins isomers has also been studied by the PAMPA (parallel artificial membrane permeability assay)-BBB model system, which indicates passive diffusion of test compounds across the brain capillary endothelium. […]
n-octanol. […] For each compound a minimum of three to six titrations at different phase volume ratios were measured, and the respective average logP values were calculated. logD values were also calculated by logP and pKa values using the Henderson– Hasselbalch equation. […]
(§1) for 4 h. After the incubation, PAMPA sandwich plates are separated and compound concentrations in donor and acceptor solutions are determined by HPLC-DAD. […]
(§2) Cytotoxicity on SH-SY5Y cells: Cytotoxicity on SH-SY5Y cells was measured in an analogous manner as described in the literature. […]

[2] = system: P-glycoprotein (P-gp); test: Rhodamine 123 accumulation in P-gp transfected L5178MDR cells; type: cell-based; conditions: 2 and 20 μM of compound
Method: In connection with the BBB penetration studies, 2a–d and 3a–d were tested for their potential towards CNS cytotoxic activity on undifferentiated SH-SY5Y neuroblastoma cells. […] On the other hand, the possibility for neuroprotective activity could not be tested with the applied experimental setup. As an additional bioassay on compounds 2a–d and 3a–d, their potential to interfere with the function of P-glycoprotein (P-gp) was tested. By transporting a wide variety of compounds from the CNS back into the blood stream, P-gp is an important element of the BBB [16]. […]
as §1, §2
(§3) were read after o/n incubation. Fifty percent inhibitory concentrations (IC50) were calculated using nonlinear regression curve fitting of log (inhibitor) versus normalized response and variable slope with a least squares (ordinary) fit of GraphPad Prism 5 software, for three independent samples.
Evaluation of compounds effect on rhodamine 123 accumulation: Rd123 concentration inside L5178PAR and L5178MDR cells was determined by flow cytometry. […]

[3] = logP determination by titrations in the presence of n-octanol; logD calculated from logP and pKa; type: physicochemical; conditions: n-octanol/water; for logP: lipophilicity of neutral species; for logD: calculated from logP and pKa by Henderson–Hasselbalch equation
Method: (§4) n-octanol. From the n-octanol containing titrations the poKa (the apparent ionization constant in the presence of n-octanol) and then logP values were estimated and refined by a weighted non-linear least-squares procedure, where the aqueous pKa values (taken from aqueous titrations) were used as unrefined contributions. For each compound a minimum of three to six titrations at different phase volume ratios were measured, and the respective average logP values were calculated. logD values were also calculated by logP and pKa values using the Henderson– Hasselbalch equation. The relevant relationships between logP, pKa, and poKa, for mono- and multiprotic substances, including cases of ion-pair formation, have been described in detail earlier. […]

[4] = pKa determination by aqueous titrations; type: physicochemical; conditions: aqueous solution, phenolic hydroxy group
Method: as §4

[5] = Cytotoxicity on SH-SY5Y cells (MTT); type: cell-based; conditions: human, undifferentiated SH-SY5Y neuroblastoma cells
Method: for 4 h. After the incubation, PAMPA sandwich plates are separated and compound concentrations in donor and acceptor solutions are determined by HPLC-DAD.
SH-SY5Y neuroblastoma was cultured in EMEM media supplemented with non-essential amino acids, 1 mM Na pyruvate and 10% inactivated fetal bovine serum, nystatin, 2 mM L-glutamine, 100 U penicillin and 0.1 mg streptomycin, purchased from Sigma. Cells were cultured at 37 °C and 5% CO2. […]
as §2, §3
Evaluation of compounds effect on rhodamine 123 accumulation: Rd123 concentration inside L5178PAR and L5178MDR cells was determined by flow cytometry.
Briefly, 2 × 10^6 cells/mL were treated with 2 and 20 μM of each compound and incubated for 10 min at rt. […] The fluorescence of the samples was measured by flow cytometry (Becton Dickinson FACScan, BD, U.S.). […]
Fluorescence activity ratio measures the capacity of inhibition (accumulation of Rd123) and it is equal to the ratio between the FL-1 values of the L5178MDR cells […]

[6] = DPPH radical scavenging test; conditions: microplate format
Method: Antioxidant activity: The radical scavenging capacity of dracocephins A and B were
tested in the microplate format of the 2,2-diphenyl-1-picrylhydrazyl (DPPH) assay.
Naringenin and quercetin were obtained from PhytoLab (Vestenbergsgreuth,
Germany), and used as controls. […]

[7] = first value in cell, read-out: pKa (first, lowest acidic)
[8] = second value in cell, read-out: pKa (second) (converted)
[9] = third value in cell, read-out: pKa (third) (converted)

| Compound | Papp at 4 h, 100 µM [1] [×10⁻⁶ cm/s] | P-gp inhibition (rhodamine 123 accumulation) [2] | logP [3] | logD ([3]; pH 6.5, read-out: log D6.5) | logD ([3]; pH 7.4, read-out: log D7.4) | pKa [4, 7] | pKa [4, 8] | pKa [4, 9] | IC50 at 48 h [5] [µM] | IC50 DPPH radical scavenging [6] [µg/mL] |
| --- | --- | --- | --- | --- | --- | --- | --- | --- | --- | --- |
| O=C1CCC(c2c(O)cc3c(c2O)C(=O)CC(c2ccc(O)cc2)O3)N1 (stereo not drawn) [2a–d, 6-(2”-pyrrolidinone-5”-yl)naringenin] | 1.1 ± 0.1 | none of the synthesized compounds inhibits this transporter | 2.52 ± 0.02 | 2.31 | 1.74 | 6.69 ± 0.01 | 9.47 | 12.3 | > 150 | > 200 |
| O=c1c(O)c(-c2ccc(O)c(O)c2)oc2cc(O)cc(O)c12 [quercetin, reference compound] | – | – | – | – | – | – | – | – | – | 9.4 ± 0.6 (≈ 31.1 µM) |
| naringenin [(±)-1, reference compound] | – | – | – | – | – | – | – | – | – | > 200 |
| O=C1CCC(c2c(O)cc(O)c3c2OC(c2ccc(O)cc2)CC3=O)N1 (stereo not drawn) [3a–d, 8-(2”-pyrrolidinone-5”-yl)naringenin] | – | none of the synthesized compounds inhibits this transporter | 2.39 ± 0.02 | 2.12 | 1.51 | 6.54 | 9.54 | 12 | > 150 | > 200 |

— PMC5238559, “Biomimetic synthesis and HPLC–ECD analysis of the isomers of dracocephins A and B” (Beilstein Journal of Organic Chemistry, 2016)
